In patent publication US8648066B2 (Exelixis, Inc., priority 2009, dated 2014):

target: mTOR/GbL/Raptor (mTORC1) (Homo sapiens, UniProt P42345); test: mTOR/GbL/Raptor (mTORC1) ELISA assay; type: biochemical; conditions: phosphorylation of 4E-BP1; 0.2 nM mTORC1, 10 μM ATP; read-out: IC50 in this assay (mTORC1 ELISA)
Description: The measurement of mTORC1 enzyme activity was performed in an ELISA assay format following the phosphorylation of 4E-BP1 protein. All experiments were performed in the 384-well format. Generally, 0.5 μL DMSO containing varying concentrations of the test Compound was mixed with 15 μL enzyme solution. Kinase reactions were initiated with the addition of 15 μL of substrates-containing solution. The assay conditions were as follows; 0.2 nM mTORC1, 10 μM ATP and 50 nM NHis-tagged 4E-BP1 in 20 mM Hepes, pH 7.2, 1 mM DTT, 50 mM NaCl, 10 mM MnCl2, 0.02 mg/mL BSA, 0.01% CHAPS, 50 mM β-glycerophosphate. Following an incubation of 120 minutes at ambient temperature, 20 μL of the reaction volume was transferred to a Ni-Chelate-coated 384-well plate. The binding step of the 4E-BP1 protein proceeded for 60 minutes, followed by washing 4 times each with 50 μL of Tris-buffered saline solution (TBS). Anti-phospho-4E-BP1 rabbit-IgG (20 μL, 1:5000) in 5% BSA-TBST (0.2% Tween-20 in TBS) was added and further incubated for 60 minutes. Incubation with a secondary HRP-tagged anti-IgG was similarly performed after washing off the primary antibody (4 washes of 50 μL). Following the final wash step with TBST, 20 μL of SuperSignal ELISA Femto (Pierce Biotechnology) was added and the luminescence measured using an EnVision plate reader.

Row | Structure (SMILES) | IC50 [nM]
1 | CC1(C)CCc2ncnc(N3CCOc4ccc(-c5cnc(N)c(S(=O)(=O)NCC(O)C(F)(F)F)c5)cc4C3)c2C1 (stereo not drawn) [Example 373, 2-amino-5-[4-(6,6-dimethyl-5,6,7,8-tetrahydroquinazolin-4-yl)-2,3,4,5-tetrahydro-1,4-benzoxazepin-7-yl]-N-(3,3,3-trifluoro-2-hydroxypropyl)pyridine-3-sulfonamide] | ≤ 10
2 | Cn1c(N)nc2cc(-c3ccc4c(c3)CN(c3ccnc5ccccc35)CCO4)ccc21 [Example 116, 1-methyl-5-(4-quinolin-4-yl-2,3,4,5-tetrahydro-1,4-benzoxazepin-7-yl)-1H-benzimidazol-2-amine] | 1000 to 2000
3 | Cc1nc2c(c(N3CCOc4ccc(-c5cnc(N)c(S(=O)(=O)NCC6CCN(C)CC6)c5)cc4C3)n1)CC(C)(C)CC2 [Example 419, 2-amino-N-[(1-methylpiperidin-4-yl)methyl]-5-[4-(2,6,6-trimethyl-5,6,7,8-tetrahydroquinazolin-4-yl)-2,3,4,5-tetrahydro-1,4-benzoxazepin-7-yl]pyridine-3-sulfonamide] | 250 to 1000
4 | Cc1nc2c(c(N3CCOc4ccc(-c5cnc(N)c(S(=O)(=O)N(C)C)c5)cc4C3)n1)CC(C)(C)CC2 [Example 417, 2-amino-N,N-dimethyl-5-[4-(2,6,6-trimethyl-5,6,7,8-tetrahydroquinazolin-4-yl)-2,3,4,5-tetrahydro-1,4-benzoxazepin-7-yl]pyridine-3-sulfonamide] | 50 to 250
5 | COc1ccc(-c2ccc3c(c2)CN(c2nc(CN(C)C)nc4c2CC(C)(C)CC4)CCO3)cc1OC [Example 323, 1-(4-{7-[3,4-bis(methyloxy)phenyl]-2,3-dihydro-1,4-benzoxazepin-4(5H)-yl}-6,6-dimethyl-5,6,7,8-tetrahydroquinazolin-2-yl)-N,N-dimethylmethanamine] | 250 to 1000
6 | CN(c1cc(-c2ccc3c(c2)CN(c2ncnc4c2CC(C)(C)CC4)CCO3)cnc1Cl)S(C)(=O)=O [Example 624, N-{2-chloro-5-[4-(6,6-dimethyl-5,6,7,8-tetrahydroquinazolin-4-yl)-2,3,4,5-tetrahydro-1,4-benzoxazepin-7-yl]pyridin-3-yl}-N-methylmethanesulfonamide] | 250 to 1000
7 | C=CCc1c(C)nc(CN(C)C)nc1N1CCOc2ccc(-c3ccc4nc(C)[nH]c4c3)cc2C1 [Example 654, N,N-dimethyl-1-{4-methyl-6-[7-(2-methyl-1H-benzimidazol-6-yl)-2,3-dihydro-1,4-benzoxazepin-4(5H)-yl]-5-prop-2-en-1-ylpyrimidin-2-yl}methanamine] | 50 to 250
8 | CCNc1nc2ccc(-c3ccc4c(c3)CN(c3ccnc5cc(OC)c(OC)cc35)CCO4)cc2[nH]1 [Example 261, 6-{4-[6,7-bis(methyloxy)quinolin-4-yl]-2,3,4,5-tetrahydro-1,4-benzoxazepin-7-yl}-N-ethyl-1H-benzimidazol-2-amine] | 250 to 1000
9 | CCNc1nc2ccc(-c3ccc4c(c3)CN(c3cc(Nc5ccccc5)ncn3)CCO4)cc2[nH]1 [Example 275, N-ethyl-6-{4-[6-(phenylamino)pyrimidin-4-yl]-2,3,4,5-tetrahydro-1,4-benzoxazepin-7-yl}-1H-benzimidazol-2-amine] | 50 to 250
10 | Cc1nc2ccc(-c3ccc4c(c3)CN(c3nc(CN(C)C)nc(C)c3CC3CC3)CCO4)cc2[nH]1 [Example 345, 1-{5-(cyclopropylmethyl)-4-methyl-6-[7-(2-methyl-1H-benzimidazo-6-yl)-2,3-dihydro-1,4-benzoxazepin-4(5H)-yl]pyrimidin-2-yl}-N,N-dimethylmethanamine] | 250 to 1000
11 | CC[C@H]1CCc2c(ncnc2N2CCOc3ccc(-c4cnc(N)c(S(=O)(=O)N5CCC(C)(N)C5)c4)cc3C2)C1 (stereo partly drawn) [Example 442, 3-[(3-amino-3-methylpyrrolidin-1-yl)sulfonyl]-5-{4-[(7S)-7-ethyl-5,6,7,8-tetrahydroquinazolin-4-yl]-2,3,4,5-tetrahydro-1,4-benzoxazepin-7-yl}pyridin-2-amine] | 10 to 50
12 | CNCCN(C)c1ncnc(N2CCOc3ccc(-c4cnc5nc(C6CC6)[nH]c5c4)cc3C2)c1C [Example 635, N-{6-[7-(2-cyclopropyl-1H-imidazo[4,5-b]pyridin-6-yl)-2,3-dihydro-1,4-benzoxazepin-4(5H)-yl]-5-methylpyrimidin-4-yl}-N,N′-dimethylethane-1,2-diamine] | 250 to 1000
13 | Cc1c(NCCC2CCCN2C)ncnc1N1CCOc2ccc(-c3cnc4nc(C5CC5)[nH]c4c3)cc2C1 (stereo not drawn) [Example 534, 6-[7-(2-cyclopropyl-1H-imidazo[4,5-b]pyridin-6-yl)-2,3-dihydro-1,4-benzoxazepin-4(5H)-yl]-5-methyl-N-[2-(1-methylpyrrolidin-2-yl)ethyl]pyrimidin-4-amine] | 1000 to 2000
14 | Cc1nc2ncc(-c3ccc4c(c3)CN(c3ncnc5c3C[C@H](C)[C@@H](C)C5)CCO4)cc2[nH]1 [Example 486, 4-[(6S,7S)-6,7-dimethyl-5,6,7,8-tetrahydroquinazolin-4-yl]-7-(2-methyl-1H-imidazo[4,5-b]pyridin-6-yl)-2,3,4,5-tetrahydro-1,4-benzoxazepine] | ≤ 10
15 | Cc1nc2cc(-c3ccc4c(c3)CN(c3nc(CN(C)C)ncc3C(C)C)CCO4)ccc2[nH]1 [Example 612, N,N-dimethyl-1-{4-[7-(2-methyl-1H-benzimidazol-5-yl)-2,3-dihydro-1,4-benzoxazepin-4(5H)-yl]-5-(1-methylethyl)pyrimidin-2-yl}methanamine] | 50 to 250
16 | COC(=O)Nc1nc2ccc(-c3ccc4c(c3)CN(c3ccnc5ccccc35)CCO4)cc2[nH]1 [Example 114, methyl [6-(4-quinolin-4-yl-2,3,4,5-tetrahydro-1,4-benzoxazepin-7-yl)-1H-benzimidazol-2-yl]carbamate] | 250 to 1000
17 | CC1(C)CCc2ncnc(N3CCOc4ccc(-c5cnc(N)c(S(=O)(=O)N6CC[C@@H](O)C6)c5)cc4C3)c2C1 [Example 305, (3R)-1-({2-amino-5-[4-(6,6-dimethyl-5,6,7,8-tetrahydroquinazolin-4-yl)-2,3,4,5-tetrahydro-1,4-benzoxazepin-7-yl]pyridin-3-yl}sulfonyl)pyrrolidin-3-ol] | 10 to 50

Next, values leading:

Row | IC50 [nM] | Structure (SMILES)
18 | 50 to 250 | CCc1c(C)ncnc1N1CCOc2ccc(-c3cnc4nc(C)[nH]c4c3)cc2C1 [Example 470, 4-(5-ethyl-6-methylpyrimidin-4-yl)-7-(2-methyl-1H-imidazo[4,5-b]pyridin-6-yl)-2,3,4,5-tetrahydro-1,4-benzoxazepine]
19 | 10 to 50 | Nc1nc2ncc(-c3ccc4c(c3)CN(c3ncnc5ccc(Cl)cc35)CCO4)cc2[nH]1 [Example 186, 6-[4-(6-chloroquinazolin-4-yl)-2,3,4,5-tetrahydro-1,4-benzoxazepin-7-yl]-1H-imidazo[4,5-b]pyridin-2-amine]
20 | 50 to 250 | CCc1ncnc(N2CCOc3ccc(-c4cnc5nc(C)[nH]c5c4)cc3C2)c1C [Example 245, 4-(6-ethyl-5-methylpyrimidin-4-yl)-7-(2-methyl-1H-imidazo[4,5-b]pyridin-6-yl)-2,3,4,5-tetrahydro-1,4-benzoxazepine]
21 | 250 to 1000 | COC(=O)Nc1nc2ccc(-c3ccc4c(c3)CN(c3ncnc5ccccc35)CCO4)cc2[nH]1 [Example 109, methyl [6-(4-quinazolin-4-yl-2,3,4,5-tetrahydro-1,4-benzoxazepin-7-yl)-1H-benzimidazol-2-yl]carbamate]
22 | ≤ 10 | Cc1ccc(Cc2c(C)ncnc2N2CCOc3ccc(-c4ccc5nc(C)[nH]c5c4)cc3C2)cc1 [Example 78, 7-(2-methyl-1H-benzimidazol-6-yl)-4-{6-methyl-5-[(4-methylphenyl)methyl]pyrimidin-4-yl}-2,3,4,5-tetrahydro-1,4-benzoxazepine]
23 | 10 to 50 | Cc1nc2ccc(-c3ccc4c(c3)CN(c3ncnc(C)c3Cc3cc(F)cc(F)c3)CCO4)cc2[nH]1 [Example 91, 4-(5-[(3,5-difluorophenyl)methyl]-6-methylpyrimidin-4-yl}-7-(2-methyl-1H-benzimidazol-6-yl)-2,3,4,5-tetrahydro-1,4-benzoxazepine]
24 | 10 to 50 | Cc1c(Nc2ccccc2)ncnc1N1CCOc2ccc(-c3cnc4nc(N)[nH]c4c3)cc2C1 [Example 540, 6-{4-[5-methyl-6-(phenylamino)pyrimidin-4-yl]-2,3,4,5-tetrahydro-1,4-benzoxazepin-7-yl}-1H-imidazo[4,5-b]pyridin-2-amine]
25 | 10 to 50 | COc1ccc2c(N3CCOc4ccc(-c5ccc(-c6ncc[nH]6)cc5)cc4C3)nc(C)nc2c1 [Example 256, 7-[4-(1H-imidazol-2-yl)phenyl]-4-[2-methyl-7-(methyloxy)quinazolin-4-yl]-2,3,4,5-tetrahydro-1,4-benzoxazepine]
26 | ≤ 10 | Cc1nc(N)nc(N2CCOc3ccc(-c4cnc5[nH]cnc5c4)cc3C2)c1Cc1ccc(F)cc1 [Example 689, 5-[(4-fluorophenyl)methyl]-4-[7-(3H-imidazo[4,5-b]pyridin-6-yl)-2,3-dihydro-1,4-benzoxazepin-4(5H)-yl]-6-methylpyrimidin-2-amine]
27 | 50 to 250 | CCNc1nc2ccc(-c3ccc4c(c3)CN(c3ccnc5ccc(F)cc35)CCO4)cc2[nH]1 [Example 283, N-ethyl-6-[4-(6-fluoroquinolin-4-yl)-2,3,4,5-tetrahydro-1,4-benzoxazepin-7-yl]-1H-benzimidazol-2-amine]
